Consider one molecule from the NIST ThermoML archive (doi:10.1016/j.tca.2005.06.011).

A short description of the data set: excess molar enthalpy (molar enthalpy of mixing); xn = mol fraction of the nth substance listed. As to conditions: 298.15 K, 101 kPa, Liquid, Flow calorimetry.

± gives the expanded uncertainty stated by the source.

Regarding `CC(C)O` [propan-2-ol] + CCCO, the excess molar enthalpy is -0.00906 ± 0.000263 kcal/mol (x2 = 0.2499), -0.0108 ± 0.000263 kcal/mol (x2 = 0.5) and -0.00837 ± 0.000239 kcal/mol (x2 = 0.75).
